Source: patent US20090060875A1, “HCV Vaccines for Chronic HCV Patients” (INTERCELL AG, priority 2004, published 2009)

How the values were obtained:
[1] = standard therapy, background; cited from earlier work
[2] = tested on: interferon gamma secreting T-cells (CD4+ Helper- and CD8+ cytotoxic T-cells); test: Interferon-gamma ELIspot assay in phase 2 study of chronic HCV patients; type: in vivo, human; conditions: chronic HCV patients (FIG. 2)
Text: (§1) In the present clinical study, each group consisted of 12 subjects, positive for HLA-A2. Subjects received 6 vaccinations in monthly intervals (at visits 3 to 8). Blood for immunological analyses was drawn prior vaccination and at visits 6 to 8, one month after last vaccination (visit 9), 3 months after last vaccination (visit 10) and 6 months after last vaccination (visit 11). For immunological monitoring of clinical trials, state-of-the-art T cell assays to determine immunological endpoints under GLP/GCP compliance were applied: Interferon-gamma ELIspot Assay, T cell Proliferation Assay, HLA-tetramer/FACS assay. These assays allow reliable measurements of epitope-specific T cell responses induced by the therapeutic HCV vaccine IC41. The vaccine-induced T cell immune responses serve as surrogate parameters of efficacy (Keilholz et al. 2002).
As secondary endpoints T-cell immunogenicity was determined by interferon gamma ELIspot. ELIspot allows quantification of peptide-specific, functional (i.e. cytokine-secreting) T cells in biological samples like human blood. The basis of the assay is that, T cells upon stimulation with a peptide specifically recognized by the T cell receptor react by secretion of cytokines like IFN-γ. […]
The filter-wells of this plate are coated with a Mab specific for IFN-γ. […] Spots can be counted using automated plate readers. […]

[3] = tested on: CD4+ Helper-T-cells; test: T-cell proliferation assay ([3H]-thymidine) in phase 2 study of chronic HCV patients; type: in vivo, human; conditions: vaccinations at month 0-5, stimulation indices, median of 12 patients per group (FIG. 1), listed as poly-L-Arginine alone
Text: as §1
As primary endpoint T-cell immunogenicity was determined by a T-cell proliferation assay. […] Proliferation of cells can be measured by a variety of means; among the most sensitive approaches ranks incorporation of radioactively labeled thymidine into DNA synthesized prior cell division. […] Cells are then harvested onto a filter plate: medium containing free radioactivity is washed away, whereas DNA sticks to the filter. Incorporated radioactivity can be quantified by means of a beta-scintillation counter determining counts-per-minute (cpm). […]

## NC(=O)c1ncn([C@@H]2O[C@H](CO)[C@@H](O)[C@H]2O)n1 [Ribavirin, ribavirin]
[1]
  Side effects: teratogenic, mutagenic and carcinogenic potency

## Poly-L-Arginine
[2]
  Induction of interferon gamma secreting T-cells (type I T-cell response): cannot induce any response
[3]
  CD4+ Helper-T-cell proliferation (induction of significant proliferative response): not and neither peptides alone nor poly-L-Arginine alone have this ability
